Assay results published in patent US9018142B2, “Oil-field biocide method utilizing a peracid” (PeroxyChem LLC, priority 2008, dated 2015).

Assays:
[1] = system: Desulfotomaculum nigrificans (ATCC 19858); assay: D. nigrificans growth after biocide exposure in 0.1 wt % polyacrylamide; type: cell-based; design: key to D. nigrificans Growth Results / D. nigrificans Growth Results, Neutral Control: positive (+); negative (NEG)
Method: Example 2 illustrates the biocidal efficacy of peracetic acid, compared with glutaraldehyde, against another strain of sulfur-reducing bacteria, Desulfotomaculum nigrificans, present in an aqueous solution also containing 0.1 wt % polyacrylamide polymer. A range of peracetic acid and glutaraldehyde concentrations were evaluated for biocidal efficacy: 1, 5, 10, 25, 50, 75, 100, 200 and 300 ppm peracetic acid and the same concentrations for glutaraldehyde (except that 300 ppm was omitted).
The dilute aqueous polyacrylamide was prepared using an aqueous 50 wt % polyacrylamide solution (Sigma-Aldrich, St. Louis, Mo.) and diluting the polyacrylamide with deionized water to obtain 0.1 wt % polyacrylamide in water. The peracetic acid was Vigor Ox® SP-15 antimicrobial agent, containing about 15-17 wt % peracetic acid, 9-11 wt % hydrogen peroxide and 33-38 wt % acetic acid in water (FMC Corporation, Philadelphia, Pa.), and this peracetic acid solution was diluted to the desired concentration within the range 1 to 300 ppm peracetic acid for the various evaluations. The glutaraldehyde used in this Example 2 was a 50 wt % glutaraldehyde solution in water (Alfa Aesar, Ward Hill, Mass.), diluted with deionized water to the desired concentration within the range 1 to 200 ppm for the evaluations.
The bacterial strain used in this Example 2 was the sulfur-reducing bacterium Desulfotomaculum nigrificans (ATCC 19858 from American Type Culture Collection, Manassas, Va.). A working inoculum for each of the three studies described below was prepared by the following procedure. Baar's medium for sulfate reducers was inoculated with D. nigrificans from a cryogenic tube, grown at 50° C. anaerobically for a period sufficient to observe good growth of the culture (evident by blackening of the tube), between 2-7 days. This D. nigrificans culture was used as the working inoculum for each of the studies described below.
The methodology used in this Example 2 was as follows. A sterilized screw-cap tube containing 9.5-10 ml 0.1 wt % polyacrylamide was dosed with an appropriate amount of peracetic acid (or glutaraldehyde) to provide the desired peracetic acid (or glutaraldehyde) concentration (e.g., 1 to 300 ppm peracetic acid) in 10 ml 0.1 wt % polyacrylamide required for the study. The tubes were then vortex mixed and 0.1 ml D. nigrificans inoculum was added and again vortex mixed. The initial inoculation level was estimated as about 2.6×10^6 CFU/tube. Timing of the exposure period (e.g., 1 minute to 1 day) was begun when the D. nigrificans inoculum was added.
After the exposure period had elapsed, 1 ml of the treated mixture was added to a second tube containing 9 ml of Dey-Engley (D/E) neutralizing broth and vortex mixed. After about 5-8 minutes had elapsed, 1 ml of the neutralized solution was added to yet another tube containing 9 ml of Baar's modified medium for sulfate reducers. This tube was vortex mixed and then incubated anaerobically at 50° C., with the screw cap loosened, using an AnaeroPack (Mitsubishi Gas Chemical America, Inc., New York, N.Y.) in an anaerobic jar.
Growth controls were also carried out in the studies of this Example 2, using the following procedure. A screw-cap tube containing 10 ml of 0.1 wt % polyacrylamide was inoculated with 0.1 ml of D. nigrificans culture and then diluted in D/E neutralizing broth after the exposure period, vortex mixed, and then diluted in Baar's medium as described above. The control tubes were incubated at 50° C., also as described above, and monitored for growth after two days.
Neutralizing controls were also carried out for the peracetic acid and glutaraldehyde treatment agents to confirm that D/E neutralizing broth (which contains sodium bisulfite and […] among its neutralizing agents) was capable of neutralizing either peracetic acid or glutaraldehyde at the highest concentration used in each study. […]

[2] = system: Desulfovibrio desulfuricans (vulgaris) (ATCC 7757); assay: Biocidal efficacy against sulfur-reducing bacteria in 0.1 wt % polyacrylamide (colony population analysis, CFU); type: cell-based; conditions: not a side-by-side comparative study
Method: Example 1 illustrates the biocidal efficacy of peracetic acid, compared with glutaraldehyde, against a strain of sulfur-reducing bacteria, Desulfovibrio desulfuricans (vulgaris), present in an aqueous solution also containing 0.1 wt % polyacrylamide polymer. A range of peracetic acid and glutaraldehyde concentrations were evaluated for biocidal efficacy: 5, 10, 30, 150 and 300 ppm peracetic acid and 25 and 500 ppm glutaraldehyde.
The dilute aqueous polyacrylamide was prepared using a 50 wt % polyacrylamide solution in water, with the polyacrylamide having an average molecular weight ˜10,000 (Aldrich No. 434949, Sigma-Aldrich, St. Louis, Mo.). The peracetic acid was Vigor Ox® SP-15 antimicrobial agent, containing about 15-17 wt % peracetic acid, 9-11 wt % hydrogen peroxide and 33-38 wt % acetic acid in water (FMC Corporation, Philadelphia, Pa.), and this peracetic acid solution was diluted to 5, 10, 30, 150 and 300 ppm peracetic acid for the various evaluations. The glutaraldehyde used in this Example 1 was a 25 wt % glutaraldehyde solution in water (Sigma-Aldrich No. G4004, Sigma-Aldrich, St. Louis, Mo.), diluted to either 25 or 500 ppm for the evaluations. […]
Peracetic acid and glutaraldehyde were next evaluated for biocidal efficacy against the sulfur-reducing bacterium Desulfovibrio vulgaris. […]

[3] = at 25° C.; cited from earlier work
[4] = first study, 1 ppm, 1 minute exposure
[5] = first study, 1 ppm, 1 hour exposure
[6] = first study, 1 ppm, 1 day exposure
[7] = first study, 5 ppm, 1 minute exposure
[8] = first study, 5 ppm, 1 hour exposure
[9] = first study, 5 ppm, 1 day exposure
[10] = first study, 10 ppm, 1 minute exposure
[11] = first study, 10 ppm, 1 hour exposure
[12] = first study, 10 ppm, 1 day exposure
[13] = first study, 25 ppm, 1 minute exposure
[14] = first study, 25 ppm, 1 hour exposure
[15] = first study, 25 ppm, 1 day exposure
[16] = first study, 50 ppm biocide neutralized in D/E neutralizing broth before inoculation
[17] = first study, 50 ppm, 1 minute exposure
[18] = first study, 50 ppm, 1 hour exposure
[19] = first study, 50 ppm, 1 day exposure
[20] = second study, 50 ppm, 10 minutes exposure
[21] = second study, 50 ppm, 1 hour exposure
[22] = second study, 50 ppm, 1 day exposure
[23] = second study, 75 ppm, 10 minutes exposure
[24] = second study, 75 ppm, 1 hour exposure
[25] = second study, 75 ppm, 1 day exposure
[26] = second study, 100 ppm, 10 minutes exposure
[27] = second study, 100 ppm, 1 hour exposure
[28] = second study, 100 ppm, 1 day exposure
[29] = second study, 200 ppm biocide neutralized in D/E neutralizing broth before inoculation
[30] = second study, 200 ppm, 10 minutes exposure
[31] = second study, 200 ppm, 1 hour exposure
[32] = second study, 200 ppm, 1 day exposure

Question: For `O=CCCCC=O` [Glutaraldehyde, glutaraldehyde, reference compound], which “D. nigrificans Growth Results” value [1, 4] is on record?
Answer: +

Question: What about the “D. nigrificans Growth Results” value [1, 5] of the same compound?
Answer: +

Question: And the “D. nigrificans Growth Results” value [1, 6]?
Answer: +

Question: What about the “D. nigrificans Growth Results” value [1, 7] of the same compound?
Answer: +

Question: What about the “D. nigrificans Growth Results” value [1, 8] of the same compound?
Answer: +

Question: And the “D. nigrificans Growth Results” value [1, 9]?
Answer: +

Question: And the “D. nigrificans Growth Results” value [1, 10]?
Answer: +

Question: And the “D. nigrificans Growth Results” value [1, 11]?
Answer: +

Question: And the “D. nigrificans Growth Results” value [1, 12]?
Answer: +

Question: And the “D. nigrificans Growth Results” value [1, 13]?
Answer: +

Question: What about the “D. nigrificans Growth Results” value [1, 14] of the same compound?
Answer: +

Question: What about the “D. nigrificans Growth Results” value [1, 15] of the same compound?
Answer: +

Question: What about the “D. nigrificans Growth Results, Neutral Control” value [1, 16] of the same compound?
Answer: +

Question: What about the “D. nigrificans Growth Results” value [1, 17] of the same compound?
Answer: +

Question: And the “D. nigrificans Growth Results” value [1, 18]?
Answer: +

Question: What about the “D. nigrificans Growth Results” value [1, 19] of the same compound?
Answer: +

Question: And the “biocidal control of D. nigrificans” value ([1]; first study, any of the concentrations (1 to 50 ppm) or exposure times (1 minute, 1 hour, 1 day))?
Answer: no biocidal control

Question: And the “D. nigrificans Growth Results” value [1, 20]?
Answer: +

Question: What about the “D. nigrificans Growth Results” value [1, 21] of the same compound?
Answer: +

Question: What about the “D. nigrificans Growth Results” value [1, 22] of the same compound?
Answer: +

Question: What about the “D. nigrificans Growth Results” value [1, 23] of the same compound?
Answer: +

Question: What about the “D. nigrificans Growth Results” value [1, 24] of the same compound?
Answer: +

Question: What about the “D. nigrificans Growth Results” value [1, 25] of the same compound?
Answer: +

Question: And the “D. nigrificans Growth Results” value [1, 26]?
Answer: +

Question: And the “D. nigrificans Growth Results” value [1, 27]?
Answer: +

Question: What about the “D. nigrificans Growth Results” value [1, 28] of the same compound?
Answer: +

Question: What about the “D. nigrificans Growth Results, Neutral Control” value [1, 29] of the same compound?
Answer: +

Question: And the “D. nigrificans Growth Results” value [1, 30]?
Answer: +

Question: What about the “D. nigrificans Growth Results” value [1, 31] of the same compound?
Answer: +

Question: And the “D. nigrificans Growth Results” value [1, 32]?
Answer: +

Question: What about the “biocidal control of D. nigrificans” value ([1]; second study, any of the concentrations (50 to 200 ppm) or exposure times (10 minutes, 1 hour, 1 day)) of the same compound?
Answer: no biocidal control

Question: Which results are given for Peracetic acid?
Answer: biocidal control of D. nigrificans ([1]; first study, 1 ppm, 5 ppm or 10 ppm, any of the exposure times): no biocidal control; D. nigrificans Growth Results [1, 4]: +; D. nigrificans Growth Results [1, 5]: +; D. nigrificans Growth Results [1, 6]: +; D. nigrificans Growth Results [1, 7]: +; D. nigrificans Growth Results [1, 8]: +; D. nigrificans Growth Results [1, 9]: +; D. nigrificans Growth Results [1, 10]: +; D. nigrificans Growth Results [1, 11]: +; D. nigrificans Growth Results [1, 12]: +; biocidal control of D. nigrificans ([1]; first study, 25 ppm and 50 ppm, 1 day exposure): provided biocidal control; D. nigrificans Growth Results [1, 13]: +; D. nigrificans Growth Results [1, 14]: +; D. nigrificans Growth Results [1, 15]: NEG; D. nigrificans Growth Results, Neutral Control [1, 16]: +; D. nigrificans Growth Results [1, 17]: +; D. nigrificans Growth Results [1, 18]: NEG and +; D. nigrificans Growth Results [1, 19]: NEG; biocidal activity against D. nigrificans ([1]; first study, 50 ppm, one hour, NEG for one of the two replicates): some biocidal activity; biocidal control of D. nigrificans ([1]; second study, 50, 75, 100 and 200 ppm, 1 day exposure): provided biocidal control; D. nigrificans Growth Results [1, 20]: +; D. nigrificans Growth Results [1, 21]: +; D. nigrificans Growth Results [1, 22]: NEG; D. nigrificans Growth Results [1, 23]: +; D. nigrificans Growth Results [1, 24]: NEG; D. nigrificans Growth Results [1, 25]: NEG; D. nigrificans Growth Results [1, 26]: +; D. nigrificans Growth Results [1, 27]: NEG and +; D. nigrificans Growth Results [1, 28]: NEG; D. nigrificans Growth Results, Neutral Control [1, 29]: +; D. nigrificans Growth Results [1, 30]: +; D. nigrificans Growth Results [1, 31]: NEG; D. nigrificans Growth Results [1, 32]: NEG; biocidal activity against D. nigrificans ([1]; second study, 10 minutes exposure, any of the concentrations): no biocidal activity; biocidal activity against D. nigrificans ([1]; second study, 1 hour exposure, 75 ppm, 100 ppm (1 of 2 replicates), 200 ppm): demonstrated biocidal activity; D. nigrificans Growth Results ([1]; third study, 100 ppm, 10 minutes exposure): +; D. nigrificans Growth Results ([1]; third study, 100 ppm, 30 minutes exposure): + and NEG; D. nigrificans Growth Results ([1]; third study, 100 ppm, 60 minutes exposure): NEG and +; D. nigrificans Growth Results ([1]; third study, 200 ppm, 10 minutes exposure): +; D. nigrificans Growth Results ([1]; third study, 200 ppm, 30 minutes exposure): NEG; D. nigrificans Growth Results ([1]; third study, 200 ppm, 60 minutes exposure): NEG; D. nigrificans Growth Results, Neutral Control ([1]; third study, 300 ppm peracetic acid neutralized in D/E neutralizing broth before inoculation): +; D. nigrificans Growth Results ([1]; third study, 300 ppm, 10 minutes exposure): NEG; D. nigrificans Growth Results ([1]; third study, 300 ppm, 30 minutes exposure): NEG; D. nigrificans Growth Results ([1]; third study, 300 ppm, 60 minutes exposure): NEG and +; biocidal activity against D. nigrificans ([1]; third study, 30 minutes, 100 ppm (2 of 3 replicates), 200 ppm, 300 ppm): demonstrated biocidal activity; biocidal control of D. nigrificans ([1]; third study, 60 minutes, 100 ppm (2 of 3 replicates), 200 ppm, 300 ppm (2 of 3 replicates)): provided biocidal control; biocidal activity against D. nigrificans ([1]; third study, ten minutes, 100 and 200 ppm): did not exhibit biocidal activity; biocidal control of D. nigrificans ([1]; third study, ten minutes, 300 ppm): exhibited biocidal control; biocidal efficacy against D. vulgaris compared with the glutaraldehyde treatment [2]: at least equivalent in performance; pKa [3]: about 8.2
